Holding throughout (experiment): inhibition of tumour cell growth, NCI panel, 48 h
Test [1] has as its system HS 578T breast.
The test system of test [2] is UACC-257 melanoma.
Test [3] concerns SW-620 colon.
Test [4] concerns M14 melanoma.
Test [5] has as its system HCT-15 colon.
The test system of test [6] is OVCAR-8 ovarian.
Test [7] has as its system CAKI-1 renal.
For test [8], the system named is MALME-3M melanoma.
Test [9] concerns SK-MEL-28 melanoma.
In test [10] the test system is A498 renal.

Several values for one entry are separate records, joined by “and”; a condition that tells them apart may be missing. Equal values may be shown once.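 Interpolation was linear, between the two tested concentrations surrounding the appropriate level; five concentrations were tested over 48 hours in 96-well plates. GI50: concentration for 50% inhibition of growth. TGI: concentration producing complete growth inhibition.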

As to `N#Cc1c(NC(=O)c2cccc3ccccc23)sc2c1CCCC2`, the GI50 is 0.0156 µM in test [1]; 0.0245 µM in test [3]; 0.0249 µM in test [4]; 0.0775 µM in test [5]; 0.0918 µM in [6]; 0.0637 µM in [7]. Also, the GI50 is 0.0174 µM in test [8], 0.0401 µM in test [9] and 0.0171 µM in test [10]. Also, the TGI in test [2] was more than 25 µM; in test [3] it was more than 25 µM; in test [4], 0.116 µM; in test [5], more than 25 µM; in [6], more than 25 µM; in test [7] it was more than 25 µM. The TGI in test [8] was more than 25 µM; in [9], more than 25 µM; in [10], 1.83 µM.

Take `O=C(Nc1ccc(Cl)cc1)c1ccc([N+](=O)[O-])o1`: the GI50 is 2.81 µM in test [1]; 1.97 µM in test [2]; 1.12 µM in test [3]; 1.99 µM in test [4]; 1.48 µM in test [5]; 2.99 µM in test [6]. Moreover, the GI50 is 2.34 µM in test [7], 2.25 µM in test [8], 1.78 µM in test [9] and 3.46 µM in test [10]. The TGI in test [1] is 18.6 µM; in test [2], 5.25 µM; in test [3] it was 2.68 µM; in [4], 4.28 µM; in test [5], 3.43 µM; in [6], 12.8 µM. For the same molecule, the TGI in test [7] was determined as 10.1 µM; in [8], 5.21 µM; in test [9], 3.79 µM; in test [10], 14.8 µM.

Take `CCCCCCCCCCCCCCCCOC(=O)c1c(C)[nH]c(/C=C2\N=C(c3ccc[nH]3)C=C2OC)c1C`: the GI50 is 1.41 µM in [1]; 9.69 µM in test [2]; 0.182 µM in test [3]; 0.152 µM in test [4]; 2.21 µM in test [5]; 0.384 µM in test [6]. Moreover, the GI50 in test [7] was 0.212 µM; in [8], 3.67 µM; in test [9], 3.94 µM; in [10] it was 1.51 µM. The TGI in [1] is 9.38 µM; in [2], more than 100 µM; in test [3], more than 100 µM; in test [4], 0.452 µM; in test [5] it was more than 100 µM; in [6] it was 15 µM. For the same molecule, the TGI in test [7] is 30.5 µM; in test [8], 29.8 µM; in test [9], more than 48.7 µM; in test [10], 5.47 µM.

For the molecule `C/C=C(\CCC1NCCc2c1[nH]c1ccccc21)[Si](C)(C)C` (stereo not drawn), the TGI was 6.28 µM in test [1]; 10.7 µM and 3.71 µM in test [2]; 9.63 µM and 3.63 µM in test [3]; 8.8 µM and 3.66 µM in test [4]; 32.7 µM and 5.08 µM in test [5]; 19.5 µM and 8.79 µM in test [6]. For the same molecule, the TGI was 21.4 µM and 11 µM in test [7]; 7.1 µM and 3.23 µM in [8]; 11.3 µM and 3.36 µM in [9]; 14 µM and 9.88 µM in test [10]. Further, the GI50 in [2] is 5.75 µM and 1.7 µM; in test [3], 5.29 µM and 1.92 µM; in [4] it was 4.65 µM and 1.82 µM; in test [7] it was 7.02 µM and 2.72 µM; in test [9] it was 6.42 µM and 1.83 µM.

In the case of `COc1cc2c3c(n(CCCCNC(=O)OCC4c5ccccc5-c5ccccc54)c(=O)c2cc1OC)-c1cc2c(cc1C3=O)OCO2`, the GI50 is 80.7 µM in test [1]; more than 100 µM in [2]; 7.75 µM in [3]; 25.9 µM in test [4]; 12.9 µM in [5]; 35 µM in test [6]. The GI50 is 5.3 µM in test [7], more than 100 µM in test [8], more than 100 µM in test [9] and more than 100 µM in [10]. For the same molecule, the TGI is more than 100 µM in test [1]; more than 100 µM in test [2]; more than 100 µM in [3]; more than 100 µM in [4]; 80.3 µM in [5]; more than 100 µM in [6]. The TGI in test [7], in [8], in test [9] and in [10] was more than 100 µM throughout.

For the molecule `O=C1/C(=C/c2ccc([N+](=O)[O-])o2)Oc2ccccc21`, the GI50 in test [1] is 2.88 µM; in [2], 1.68 µM; in [3] it was 0.373 µM; in test [4] it was 1.69 µM; in test [5], 0.341 µM; in [6] it was 1.35 µM. Also, the GI50 was 0.758 µM in [7], 1.86 µM in test [8], 1.65 µM in test [9] and 1.93 µM in [10]. The TGI turned out to be 21.4 µM in [1]; 3.5 µM in test [2]; 1.61 µM in test [3]; 3.88 µM in [4]; 1.43 µM in test [5]; 3.82 µM in [6]. In addition, the TGI in [7] turned out to be 2.17 µM; in test [8], 3.78 µM; in test [9], 3.2 µM; in [10], 4.4 µM.

As for `O=C1/C(=C/c2ccc(Cl)cc2)CN(Cc2cn(CCNc3ccnc4cc(Cl)ccc34)nn2)C/C1=C\c1ccc(Cl)cc1`, the GI50 in [1] is 0.724 µM; in test [2], 1.59 µM; in test [3] it was 0.275 µM; in [4], 0.56 µM; in test [5], 0.308 µM; in test [6], 0.367 µM. The GI50 was 0.346 µM in test [7], 1.53 µM in test [8], 1.4 µM in test [9] and 1.14 µM in test [10]. Further, the TGI in test [1] was 13.5 µM; in test [2], 3.02 µM; in [3], 0.83 µM; in test [4], 2.21 µM; in [5], 1.06 µM; in test [6] it was 1.43 µM. Further, the TGI was determined as 1.57 µM in test [7], 3.14 µM in [8], 2.81 µM in test [9] and 2.37 µM in test [10].
